# PMC5062570 (Nature Communications, 2016)
# Entries after “also recorded” stand apart in the source; their conditions may differ. Read-outs that look alike come from different tables or passages of the source.
# Legend:
# BACE1 = BACE1 (Homo sapiens, UniProt P56817); test: BACE1 biochemical cellular assay (sAPPβ ELISA in H4 cells overexpressing APP695); type: cell-based; parameters: endogenous in cells; host or cells: H4 human neuroglioma cells overexpressing human APP695; details: for BACE1 potency increase in live cells: BACE1 enzyme IC50 versus BACE1 cellular IC50; for IC50: sAPPβ ELISA, H4 neuroglioma cells with human wild-type APP
# Chain of BACE1 (P56817 46-501): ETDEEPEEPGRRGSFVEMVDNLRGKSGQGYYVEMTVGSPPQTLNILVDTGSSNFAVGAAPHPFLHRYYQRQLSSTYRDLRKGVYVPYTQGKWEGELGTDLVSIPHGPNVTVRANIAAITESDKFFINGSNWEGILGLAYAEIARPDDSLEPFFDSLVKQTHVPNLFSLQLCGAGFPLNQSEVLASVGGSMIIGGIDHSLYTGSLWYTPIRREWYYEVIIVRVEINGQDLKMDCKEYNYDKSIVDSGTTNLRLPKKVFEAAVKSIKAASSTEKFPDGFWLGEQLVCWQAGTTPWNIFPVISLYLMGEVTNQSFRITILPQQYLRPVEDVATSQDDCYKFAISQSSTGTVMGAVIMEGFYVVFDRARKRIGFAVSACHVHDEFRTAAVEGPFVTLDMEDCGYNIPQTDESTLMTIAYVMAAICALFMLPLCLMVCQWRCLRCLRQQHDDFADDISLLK
# Protocol: Cellular inhibition of BACE1 was determined by measuring sAPPβ, the primary cleavage product of BACE-1, in H4 human neuroglioma cells overexpressing the wild-type human APP695. […] The colorimetric reaction was read by an EnVision plate reader (PerkinElmer).
# [1] = Plasma exposure (average unbound plasma concentration) in rats; type: in vivo, rat; details: for Exposure: rat exploratory toxicology studies; for Avg Cp,u metabolite: active metabolite of the dosed compound
# Protocol: (§1) Wistar Han rats (obtained from Charles River, 125–300 g, 6–9 weeks old at study start, see Supplementary Table 7 for number of males and females) received daily oral dosing of test compounds or vehicle at the indicated concentrations for 7–29 days as indicated. The doses were prepared in a solution of 0.5% methylcellulose and 0.2% polysorbate 80, or 0.5% methylcellulose and hydroxypropyl methylcellulose acetate succinate (high fine grade) and delivered in a volume of 10 ml kg^−1 per day. Blood samples for bioanalytical analysis were collected in K2EDTA tubes via jugular vessel. Plasma was isolated after centrifugation and stored at −20 °C prior to analysis. Animals were given an additional dose the day after the end of the study (days 8, 15 or 30 for 7, 14 and 29 day studies, respectively) then killed by gas anaesthesia (isoflurane) followed by exsanguination ∼3 h after this final dose.
# (§2) Plasma samples were analysed after protein precipitation by treating 20 μl of sample matrix with 200 μl of acetonitrile containing internal standard. All samples were centrifuged at 3,000 r.p.m. for 5 min. Then 100 μl of supernatant was transferred to a clean plate and evaporated to dryness under N2. Samples were reconstituted in 200 μl of 80:20 (v:v) acetonitrile:water. Samples were analysed on Waters Acquity UPLC connected to AB Sciex API5500 QTrap MS/MS.
# Plasma protein binding was determined in the Rapid Equilibrium Device (RED, Thermo Scientific). Frozen plasma was warmed to 37 °C and adjusted to pH 7.4. The plasma was spiked with compound to a final concentration of 2 μM. Aliquots of spiked plasma were added to the donor (red) side, followed by addition of buffer to the receiver (white) side. The RED device was covered with a gas-permeable membrane and agitated within a humidified CO2 incubator (5% CO2, 75% relative humidity). Plasma (15 μl) and buffer (45 μl) were sampled from each insert and were matrix-matched with appropriate blank matrix (plasma with 45 μl buffer and buffer with 15 μl of plasma). Samples were protein-precipitated with acetonitrile containing internal standard, and the resulting supernatant was analysed by LC-MS/MS.
# [2] = test system: retinal pigment epithelium (RPE); test: Exploratory toxicology, ocular toxicity by retinal histology in rats; type: in vivo; details: 14 days; for Female ocular toxicity incidence (positive or negative animals / total evaluated) / Female ocular toxicity outcome / Male ocular toxicity incidence (positive or negative animals / total evaluated) / Male ocular toxicity outcome: rat; for Retinal finding by fluorescence microscopy: rats
# Protocol: as §1
# [3] = test system: aspartyl proteases (BACE2, cathepsin D, cathepsin E, pepsin and renin); details: assays with purified proteins; cited from earlier work
# [4] = test system: retinal pigment epithelium (RPE); test: Ocular toxicity, retinal histology in wild-type and BACE1 knockout mice; details: 80 mg kg-1 daily; for WT ocular toxicity incidence (positive or negative animals / total evaluated) / WT ocular toxicity outcome: wild-type mice
# Protocol: All experiments and procedures involving animals were conducted as per the established guidelines and protocols that were reviewed and approved by the Pfizer Institutional Animal Care and Use Committee. […] Animals were housed at an Association for Assessment and Accreditation of Laboratory Animal Care International accredited facility in species-specific housing. Sample number was adequately powered for exploratory toxicology studies based on consistent internal practice. Clinically acceptable animals were selected for exploratory toxicology studies and assigned to groups using a computer-assisted randomization procedure based on body weights. For the fluorescent microscopic evaluation of the eyes, animals from the control group were initially evaluated in an unblinded fashion to provide the investigator an understanding of the baseline amount of autofluorescence typical for vehicle-treated animals in the study. A subsequent blinded evaluation of all animals in the study including controls was then performed to identify individuals that were outside the normal range established by the initial unblinded control group review.
# After fixation for a minimum of 2 days, each eye was sectioned in half along the mid-sagittal plane with one half being embedded cut side down in a paraffin wax block and the other half returned to fixative. Paraffin blocks were sectioned at 4–5 μm using a microtome and the resulting sections were placed on glass slides, stained with H&E and coverslipped.
# [5] = Plasma exposure (average unbound plasma concentration) in dogs; type: in vivo; details: both sexes, beagle, oral, dog, read-out: Avg Cp,u parent
# Protocol: (§3) Naive […] beagle dogs (Canis lupus familiaris, >8 months old, n=1 male and n=1 female per group) received daily oral dosing of test compounds or vehicle for 14 days at the indicated concentrations. The doses were prepared in a solution of 0.5% methylcellulose and hydroxypropyl methylcellulose acetate succinate (high fine grade) and delivered in a volume of 5 ml kg^−1 per day. Blood samples for bioanalytical analysis were collected in K2EDTA tubes via jugular vessel. Plasma was isolated after centrifugation and stored at –20 °C before analysis. Animals were killed via intravenous administration of barbiturate followed by exsanguination ∼3 h after the final dose on day 15.
# as §2
# Plasma protein binding was determined in the Rapid Equilibrium Device (RED, Thermo Scientific). […] Samples were protein-precipitated with acetonitrile containing internal standard, and the resulting supernatant was analysed by LC-MS/MS.
# CatD = details: cited from earlier work
# [6] = test system: retinal pigment epithelium (RPE); test: Exploratory toxicology, ocular toxicity by retinal histology in dogs; type: in vivo; details: 14 days; for Female ocular toxicity incidence (positive or negative animals / total evaluated) / Female ocular toxicity outcome / Male ocular toxicity incidence (positive or negative animals / total evaluated) / Male ocular toxicity outcome: dog; for Retinal finding by fluorescence microscopy: dogs
# Protocol: as §3
# CatE = details: purified aspartyl proteases; not previously disclosed
smiles,measurement,setting,value
Cc1cc([C@H]2C[C@H]3[C@@H](CF)SC(N)=N[C@@]3(c3ccc(F)cc3F)CO2)on1 [PF-3195],BACE1 potency increase in live cells,BACE1,4.1 x
same,IC50,BACE1,15 nM
same,Exposure,[1],unexpectedly low exposures
same,"Avg Cp,u metabolite","[1]; rat, 14 days, 15 mg kg-1 once daily",460 nM
same,concentration at 29 days,"[1]; rat, 14 days, 15 mg kg-1 once daily, average unbound plasma concentration, read-out: Avg Cp,u parent",5.4 nM
same,"Avg Cp,u metabolite","[1]; rat, 14 days, 40 mg kg-1 once daily",2570 nM
same,concentration at 29 days,"[1]; rat, 14 days, 40 mg kg-1 once daily, average unbound plasma concentration, read-out: Avg Cp,u parent",58 nM
same,"Avg Cp,u metabolite","[1]; rat, 14 days, 90 mg kg-1 once daily",6350 nM
same,concentration at 29 days,"[1]; rat, 14 days, 90 mg kg-1 once daily, average unbound plasma concentration, read-out: Avg Cp,u parent",232 nM
same,"Avg Cp,u metabolite","[1]; rat, 14 days, 200 mg kg-1 once daily",17300 nM
same,concentration at 29 days,"[1]; rat, 14 days, 200 mg kg-1 once daily, average unbound plasma concentration, read-out: Avg Cp,u parent",1790 nM
same,Female ocular toxicity incidence (positive or negative animals / total evaluated),[2]; 15 mg kg-1 once daily,3/3
same,Female ocular toxicity outcome,[2]; 15 mg kg-1 once daily,Neg (negative (neg) if there was no ocular abnormality observed)
same,Male ocular toxicity incidence (positive or negative animals / total evaluated),[2]; 15 mg kg-1 once daily,3/3
same,Male ocular toxicity outcome,[2]; 15 mg kg-1 once daily,Neg (negative (neg) if there was no ocular abnormality observed)
same,Female ocular toxicity incidence (positive or negative animals / total evaluated),[2]; 40 mg kg-1 once daily,3/3
same,Female ocular toxicity outcome,[2]; 40 mg kg-1 once daily,Neg (negative (neg) if there was no ocular abnormality observed)
same,Male ocular toxicity incidence (positive or negative animals / total evaluated),[2]; 40 mg kg-1 once daily,3/3
same,Male ocular toxicity outcome,[2]; 40 mg kg-1 once daily,Neg (negative (neg) if there was no ocular abnormality observed)
same,Female ocular toxicity incidence (positive or negative animals / total evaluated),[2]; 90 mg kg-1 once daily,2/3
same,Female ocular toxicity outcome,[2]; 90 mg kg-1 once daily,Pos
same,Male ocular toxicity incidence (positive or negative animals / total evaluated),[2]; 90 mg kg-1 once daily,1/3
same,Male ocular toxicity outcome,[2]; 90 mg kg-1 once daily,Pos
same,Female ocular toxicity incidence (positive or negative animals / total evaluated),[2]; 200 mg kg-1 once daily,2/3
same,Female ocular toxicity outcome,[2]; 200 mg kg-1 once daily,Pos
same,Male ocular toxicity incidence (positive or negative animals / total evaluated),[2]; 200 mg kg-1 once daily,3/3
same,Male ocular toxicity outcome,[2]; 200 mg kg-1 once daily,Pos
same,Retinal finding by fluorescence microscopy,[2]; 15 mg kg-1 or 40 mg kg-1 daily,no intermediate phenotype
same,Retinal finding by fluorescence microscopy,[2]; 90 mg kg-1 or 200 mg kg-1 daily,accumulated autofluorescent granules
Cc1cc([C@H]2C[C@H]3[C@@H](C)SC(N)=N[C@@]3(c3ccc(F)cc3F)CO2)on1 [PF-9283],Selectivity for BACE1 over cathepsins D and E,[3],more than 200 fold
same,BACE1(-/-) ocular toxicity incidence (positive or negative animals / total evaluated),"[4]; BACE1(-/-) mice, 14 days",4/5
same,BACE1(-/-) ocular toxicity outcome,"[4]; BACE1(-/-) mice, 14 days",Pos
same,Retinal finding by fluorescence microscopy,"[4]; BACE1(-/-) mice, 14 days",accumulated autofluorescent granules were observed
same,BACE1(-/-) ocular toxicity incidence (positive or negative animals / total evaluated),"[4]; BACE1(-/-) mice, 30 days",6/6
same,BACE1(-/-) ocular toxicity outcome,"[4]; BACE1(-/-) mice, 30 days",Pos
same,WT ocular toxicity incidence (positive or negative animals / total evaluated),[4]; 2 days,5/5
same,WT ocular toxicity outcome,[4]; 2 days,Neg
same,WT ocular toxicity incidence (positive or negative animals / total evaluated),[4]; 4 days,1/5
same,WT ocular toxicity outcome,[4]; 4 days,Pos
same,WT ocular toxicity incidence (positive or negative animals / total evaluated),[4]; 7 days,6/6
same,WT ocular toxicity outcome,[4]; 7 days,Pos
same,WT ocular toxicity incidence (positive or negative animals / total evaluated),[4]; 14 days,5/5
same,WT ocular toxicity outcome,[4]; 14 days,Pos
same,WT ocular toxicity incidence (positive or negative animals / total evaluated),[4]; 30 days,6/6
same,WT ocular toxicity outcome,[4]; 30 days,Pos
same,BACE1 potency increase in live cells,BACE1,12 x
same,IC50,BACE1,6 nM
same,concentration at 14 days,[5]; 3 mg kg-1 once daily,32 nM
same,concentration at 14 days,[5]; 9 mg kg-1 once daily,401 nM
same,selectivity ratio,CatD,210
same,Female ocular toxicity incidence (positive or negative animals / total evaluated),[6]; 3 mg kg-1 once daily,1/1
same,Female ocular toxicity outcome,[6]; 3 mg kg-1 once daily,Neg (negative (neg) if there was no ocular abnormality observed)
same,Male ocular toxicity incidence (positive or negative animals / total evaluated),[6]; 3 mg kg-1 once daily,1/1
same,Male ocular toxicity outcome,[6]; 3 mg kg-1 once daily,Neg (negative (neg) if there was no ocular abnormality observed)
same,Female ocular toxicity incidence (positive or negative animals / total evaluated),[6]; 9 mg kg-1 once daily,1/1
same,Female ocular toxicity outcome,[6]; 9 mg kg-1 once daily,Neg (negative (neg) if there was no ocular abnormality observed)
same,Male ocular toxicity incidence (positive or negative animals / total evaluated),[6]; 9 mg kg-1 once daily,1/1
same,Male ocular toxicity outcome,[6]; 9 mg kg-1 once daily,Pos
same,Retinal finding by fluorescence microscopy,[6]; 3 mg kg-1 daily,not after 3 mg kg-1 dosing
same,Retinal finding by fluorescence microscopy,[6]; 9 mg kg-1 daily,accumulated autofluorescent
same,concentration at 14 days,"[1]; Wistar Han, oral, rat, 14 days, 30 mg kg-1 once daily, average unbound plasma concentration, read-out: Avg Cp,u parent",29 nM
same,Exposure,[1],unexpectedly low exposures
same,Female ocular toxicity incidence (positive or negative animals / total evaluated),[2]; 30 mg kg-1 once daily,1/3
same,Female ocular toxicity outcome,[2]; 30 mg kg-1 once daily,Pos
same,Male ocular toxicity incidence (positive or negative animals / total evaluated),[2]; 30 mg kg-1 once daily,3/3
same,Male ocular toxicity outcome,[2]; 30 mg kg-1 once daily,Neg (negative (neg) if there was no ocular abnormality observed)
same,Retinal finding by fluorescence microscopy,[2]; 80 mg kg-1 daily,accumulation of autofluorescent granules (AFG) in the RPE; also recorded: accumulated autofluorescent granules are visible
same,Fold selectivity for BACE1 over CatE,CatE,320 fold
